Measured values as given in ChEMBL document CHEMBL4261602, “Tri-armed ligands of G-quadruplex on heteroarene-fused anthraquinone scaffolds: Design, synthesis and pre-screening of biological properties” (Eur J Med Chem, 2018).

What was measured:
[1] = tested on: L1210; assay: Antiproliferative activity in mouse L1210 cells after 48 hrs by MTT assay; assay type: functional, cell-based; settings: L1210, 48 h
[2] = tested on: CCRF-CEM; assay: Antiproliferative activity in human CEM cells after 72 hrs by MTT assay; assay type: functional, cell-based
[3] = tested on: Quadruplex DNA; assay: Stabilization of human FAM-5'-d(AGGGTTAGGGTTAGGGTTAGGG)-3'-BHQ1 telomeric G4 quadruplex DNA assessed as change in melting temperature at 1 uM in presence of 50 fold excess of competitor ds26 oligonucleotide DNA by FRET assay; assay type: nucleic-acid assay
[4] = Selectivity ratio of Kb for human FAM-5'-d(AGGGTTAGGGTTAGGGTTAGGG)-3'-BHQ1 telomeric G4 quadruplex DNA to Kb for d(CAATCGGATCGAATTCGATCCGATTG) DNA (unknown origin)
[5] = tested on: Quadruplex DNA; assay: Stabilization of human FAM-5'-d(AGGGTTAGGGTTAGGGTTAGGG)-3'-BHQ1 telomeric G4 quadruplex DNA assessed as binding constant at 1 uM by FRET assay; assay type: nucleic-acid assay
[6] = tested on: HeLa; assay: Antiproliferative activity in human HeLa cells after 72 hrs by MTT assay; assay type: functional, cell-based
[7] = tested on: Quadruplex DNA; assay: Stabilization of human FAM-5'-d(AGGGTTAGGGTTAGGGTTAGGG)-3'-BHQ1 telomeric G4 quadruplex DNA assessed as change in melting temperature at 1 uM by FRET assay; assay type: nucleic-acid assay
[8] = Stabilization of d(CAATCGGATCGAATTCGATCCGATTG) DNA (unknown origin) assessed as binding constant at 1 uM by FRET assay
[9] = Drug uptake in human K562 cells at 1 uM within 15 mins by flow cytometry analysis; assay type: ADME, cell-based; settings: k562, 0.25 h

IC50 [1] [µM] | IC50 [2] [µM] | ΔTm [3] [°C] | Selectivity ratio [4] | Kb [5] [×10⁶ /M] | IC50 [6] [µM] | ΔTm [7] [°C] | Kb [8] [×10⁶ /M] | Drug uptake [9] | Compound
18 | 17 | 24 | 4550 | 91 | 17 | 25 | 0.02 | – | N=C(N)NCCCNC(=O)c1cc2c(NCCCNC(=N)N)c3c(c(NCCCNC(=N)N)c2o1)C(=O)c1ccccc1C3=O
10 | 11 | 17 | 1700 | 47 | 18 | 22 | 0.03 | – | N=C(N)NCCCNC(=O)c1cc2c(NCCCNC(=N)N)c3c(c(NCCCNC(=N)N)c2s1)C(=O)c1ccccc1C3=O
9 | 12 | 21 | – | 44 | 17 | 21 | – | – | N=C(N)NCCCNc1c2c(c(NCCCNC(=N)N)c3sc(C(=O)NCCNC(=N)N)cc13)C(=O)c1ccccc1C2=O
19 | 18 | 13 | 850 | 22 | 11 | 18 | 0.03 | – | N=C(N)NCCNC(=O)c1cc2c(NCCCCCN)c3c(c(NCCCCCN)c2o1)C(=O)c1ccccc1C3=O
10 | 11 | 14 | 950 | 29 | 9 | 20 | 0.03 | – | N=C(N)NCCCNC(=O)c1cc2c(NCCOCCN)c3c(c(NCCOCCN)c2s1)C(=O)c1ccccc1C3=O
– | – | 1 | 60 | 6 | 13 | 11 | 0.1 | Active | N=C(N)NCCNc1c2c(c(NCCNC(=N)N)c3sccc13)C(=O)c1ccccc1C2=O
13 | 13 | 19 | 1300 | 40 | 15 | 20.5 | 0.03 | Active | N=C(N)NCCCNC(=O)c1cc2c(NCCNC(=N)N)c3c(c(NCCNC(=N)N)c2s1)C(=O)c1ccccc1C3=O
19 | 21 | 18 | 2800 | 38 | 12 | 21 | 0.01 | Active | N=C(N)NCCCNC(=O)c1cc2c(NCCCCCN)c3c(c(NCCCCCN)c2s1)C(=O)c1ccccc1C3=O
12 | 16 | 18 | 2500 | 45 | 11 | 22 | 0.02 | – | N=C(N)NCCCNC(=O)c1cc2c(NCCCCN)c3c(c(NCCCCN)c2s1)C(=O)c1ccccc1C3=O
9 | 12 | 20.3 | 2300 | 46 | 14 | 21.3 | 0.02 | – | N=C(N)NCCNC(=O)c1cc2c(NCCNC(=N)N)c3c(c(NCCNC(=N)N)c2o1)C(=O)c1ccccc1C3=O
17 | 15 | 15 | 1500 | 22 | 14 | 18 | 0.01 | – | N=C(N)NCCCNC(=O)c1cc2c(NCCCCCN)c3c(c(NCCCCCN)c2o1)C(=O)c1ccccc1C3=O
12 | 16 | 10 | 300 | 33 | 18 | 20 | 0.1 | – | N=C(N)NCCNC(=O)c1cc2c(NCCNC(=N)N)c3c(c(NCCNC(=N)N)c2s1)C(=O)c1ccccc1C3=O
